Experimental data reported in patent US7741338B2, “Macrolides” (Novartis AG, priority 1998, dated 2010).

Tests used:
localized GvHD = test: localized GvHD, inhibition of lymph node swelling; type: in vivo; details: dosage of 3 mg
Protocol: (§1) In the localized GvHD, maximal inhibition (70-80%) of lymph node swelling is achieved with a dosage of 3 mg with 40-O-(2-hydroxy)ethyl-rapamycin in crystalline form.

[1] = in vitro and in vivo immunosuppressive activity; details: crystalline form compared with amorphous form
Protocol: as §1

[2] = storage stability, sum of by-products and degradation products after 1 week storage; type: physicochemical; details: 50° C. in open flask
Source text: The sum of by-products and degradation products in % after 1 week storage are as follows: […]

Structure (SMILES) | maximal inhibition of lymph node swelling (localized GvHD) | in vitro and in vivo immunosuppressive activity [1] | sum of by-products and degradation products [2]
CO[C@H]1C[C@@H]2CC[C@@H](C)[C@@](O)(O2)C(=O)C(=O)N2CCCC[C@H]2C(=O)O[C@H]([C@H](C)C[C@@H]2CC[C@@H](OCCO)[C@H](OC)C2)CC(=O)[C@H](C)/C=C(\C)[C@@H](O)[C@@H](OC)C(=O)[C@H](C)C[C@H](C)/C=C/C=C/C=C/1C [40-O-(2-hydroxy)ethyl-rapamycin] | 70-80% | comparable to that of the amorphous form | –
CO[C@H]1C[C@@H]2CC[C@@H](C)[C@@](O)(O2)C(=O)C(=O)N2CCCC[C@H]2C(=O)O[C@H]([C@H](C)C[C@@H]2CC[C@@H](OCCO)[C@H](OC)C2)CC(=O)[C@H](C)/C=C(\C)[C@@H](O)[C@@H](OC)C(=O)[C@H](C)C[C@H](C)/C=C/C=C/C=C/1C [Without BHT, 40-O-(2-hydroxy)ethyl-rapamycin] | – | – | >10%
